Measurements as given in patent publication US20250032478A1 (SURGE Therapeutics, Inc., priority 2021, published 2025).

How the values were obtained:
[1] = Visual solubility assessment of Resiquimod Form I; type: physicochemical; conditions: room temperature
[2] = Hygroscopicity of solid form; type: physicochemical
[3] = Solubility in sodium phosphate buffered saline comprising 10 wt % poloxamer 407; type: physicochemical
[4] = test system: 4T1-Luc2 breast cancer cells; test: Survival of tumor resection mice, composition placed at tumor resection site; type: in vivo, female BALB/c mice
Protocol: 4T1-Luc2 breast cancer cells were cultured in RPMI-1640 medium, with 10% fetal bovine serum (FBS) and 1% penicillin/streptomycin. All cells were cultured in a 37° C. in a humidified incubator, with 5% Co2.
All animal experiments were performed using 6-8 weeks old female BALB/c mice (Jackson Laboratories, #000651). For animal survival studies, 10^5 4T1-Luc2 cells were inoculated orthotopically into the fourth mammary fat pad of a mouse. Mice were size-matched and randomly assigned to treatment groups, and surgery was performed on day 10 or day 12 after tumor inoculation. Tumor sizes were measured with calipers. For primary tumor resection, mice were anesthetized with 2% isoflurane, the tumor was resected, and a hydrogel was placed in the surgical site at the time of surgery.
In some embodiments, female BALB/cJs mice were inoculated orthotopically with 100,000 breast cancer cells (e.g., 4T1-Luc2 cells).

[5] = in polymer combination of 8-12.5% or 6-11% (w/w) poloxamer (e.g. 10% P407) and 1-5% (w/w) HA (e.g. 4% HA 119 KDa), at tumor resection site, FIG. 29

CCOCc1nc2c(N)nc3ccccc3c2n1CC(C)(C)O [Resiquimod Form I, Resiquimod]
Observation (visual solubility) ([1]; 1-Butanol, 0.5 mL added to 10 mg): Light hazy solution
Observation (visual solubility) ([1]; 1-Propanol, 0.5 mL added to 10 mg): Light hazy solution
Observation (visual solubility) ([1]; 2-Butanol, 0.5 mL added to 10 mg): Light hazy solution
Observation (visual solubility) ([1]; 2-Ethoxyethanol, 0.25-0.5 mL added to 10 mg): Light hazy solution throughout
Observation (visual solubility) ([1]; 2-Methoxyethanol, 0.25-0.5 mL added to 10 mg): Light hazy solution throughout
Observation (visual solubility) ([1]; 2-Methyl THF, 0.25 mL added to 10 mg): Clear solution
Observation (visual solubility) ([1]; 2-Propanol, 0.5 mL added to 10 mg): Suspension
Observation (visual solubility) ([1]; Acetone, 0.5 mL added to 10 mg): Suspension
Observation (visual solubility) ([1]; Acetonitrile, 0.5 mL added to 10 mg): Suspension
Observation (visual solubility) ([1]; Amyl alcohol, 0.5 mL added to 10 mg): Light hazy solution
Observation (visual solubility) ([1]; Anisole, 0.5 mL added to 10 mg): Suspension
Observation (visual solubility) ([1]; CPME, 0.5 mL added to 10 mg): Suspension
Observation (visual solubility) ([1]; Chloroform, 0.5 mL added to 10 mg): Light hazy solution
Observation (visual solubility) ([1]; Cyclohexane, 0.5 mL added to 10 mg): Suspension
Observation (visual solubility) ([1]; DMP, 0.5 mL added to 10 mg): Suspension
Observation (visual solubility) ([1]; Dichloromethane, 0.5 mL added to 10 mg): Light hazy solution
Observation (visual solubility) ([1]; Diethyl ether, 0.5 mL added to 10 mg): Suspension
Observation (visual solubility) ([1]; Ethanol, 0.25-0.5 mL added to 10 mg): Light hazy solution throughout
Observation (visual solubility) ([1]; Ethyl acetate, 0.5 mL added to 10 mg): Suspension
Observation (visual solubility) ([1]; Heptane, 0.5 mL added to 10 mg): Suspension
Observation (visual solubility) ([1]; Hexane, 0.5 mL added to 10 mg): Suspension
Observation (visual solubility) ([1]; Isobutanol, 0.5 mL added to 10 mg): Light hazy solution
Observation (visual solubility) ([1]; Isobutyl acetate, 0.5 mL added to 10 mg): Suspension
Observation (visual solubility) ([1]; Isopropyl acetate, 0.5 mL added to 10 mg): Suspension
Observation (visual solubility) ([1]; MEK, 0.5 mL added to 10 mg): Suspension
Observation (visual solubility) ([1]; MIBK, 0.5 mL added to 10 mg): Suspension
Observation (visual solubility) ([1]; MIPK, 0.5 mL added to 10 mg): Suspension
Observation (visual solubility) ([1]; MTBE, 0.5 mL added to 10 mg): Suspension
Observation (visual solubility) ([1]; Methanol, 0.25-0.5 mL added to 10 mg): Light hazy solution throughout
Observation (visual solubility) ([1]; Methyl acetate, 0.5 mL added to 10 mg): Suspension
Observation (visual solubility) ([1]; Nitromethane, 0.5 mL added to 10 mg): Suspension
Observation (visual solubility) ([1]; Octane, 0.5 mL added to 10 mg): Suspension
Observation (visual solubility) ([1]; Pentane, 0.5 mL added to 10 mg): Suspension
Observation (visual solubility) ([1]; Petroleum Ether, 0.5 mL added to 10 mg): Suspension
Observation (visual solubility) ([1]; Propylene glycol, 0.25-0.5 mL added to 10 mg): Light hazy solution throughout
Observation (visual solubility) ([1]; THF, 0.25-0.5 mL added to 10 mg): Light hazy solution
Observation (visual solubility) ([1]; Toluene, 0.5 mL added to 10 mg): Suspension
Observation (visual solubility) ([1]; Water, 0.5 mL added to 10 mg): Suspension
Observation (visual solubility) ([1]; Xylene, 0.5 mL added to 10 mg): Suspension
Observation (visual solubility) ([1]; p-Dioxane, 0.5 mL added to 10 mg): Light hazy solution
hygroscopicity [2]: notably low hygroscopicity
solubility [3]: increased solubility

CCOCc1nc2c(N)nc3ccccc3c2n1CC(C)(C)O [resiquimod, Resiquimod]
efficacy vs chemically-crosslinked hyaluronic acid hydrogel (HyStem) incorporated with resiquimod ([4]; in crosslinked hydrogel of 8-13.5% (w/w) Poloxamer (e.g. 10% P407) and 0.6-1.5% (w/w) HA (e.g. 1% HA 1.5 MDa), FIG. 27A-E): comparable to or better than
survival time longer than control group receiving the hydrogel without resiquimod ([4]; in crosslinked hydrogel of 8-13.5% or 6-11% (w/w) Poloxamer (e.g. 10% P407) and 0.6-1.5% (w/w) HA (e.g. 1% HA 1.5 MDa), at tumor resection site, FIG. 27A-E): at least 50%
survival rate vs control group receiving the hydrogel without resiquimod ([4]; in crosslinked hydrogel of 8-13.5% or 6-11% (w/w) Poloxamer and 0.6-1.5% (w/w) HA, at tumor resection site, FIG. 27A-E): much higher survival rate
survival time vs control group receiving polymer combination without resiquimod ([4]; in polymer combination of 8-12.5% or 6-11% (w/w) poloxamer (e.g. 8%, 10% or 12.5% P407) and 1.2-2.75% (w/w) HA (e.g. 1.625% or 2.25% HA 730 KDa), at tumor resection site, FIG. 28A-D): survived over a longer period of time
survival rate vs control group receiving polymer combination without resiquimod [4, 5]: higher survival rate
survival time vs control group receiving polymer combination without resiquimod [4, 5]: survived over a longer period of time
survival rate vs control group receiving polymer combination without resiquimod ([4]; in polymer combination of 8-12.5% or 6-11% (w/w) poloxamer and 1.2-2.75% (w/w) HA 730 KDa, at tumor resection site, FIG. 28A-D): higher survival rate
